Assay results reported in ChEMBL document CHEMBL5038646, “Structure-Activity Relationship Studies of New Sinapic Acid Phenethyl Ester Analogues Targeting the Biosynthesis of 5-Lipoxygenase Products: The Role of Phenolic Moiety, Ester Function, and Bioisosterism” (J Nat Prod, 2022).
Calls of active or inactive are those of the source. The calls are words filed in the database; no cut-off is given here.

Tests used:
[1] = biological target: T1, Polyunsaturated fatty acid 5-lipoxygenase (Homo sapiens) (UniProt P09917); test: Inhibition of 5-LO in A23187-stimulated human HEK293 cells assessed as reduction in 5-LO product level at 1 uM preincubated for 5 mins followed by A23187, arachidonic acid addition and measured after 15 mins by RP-HPLC analysis relative to control; assay type: cell-based
T1 sequence (whole entry): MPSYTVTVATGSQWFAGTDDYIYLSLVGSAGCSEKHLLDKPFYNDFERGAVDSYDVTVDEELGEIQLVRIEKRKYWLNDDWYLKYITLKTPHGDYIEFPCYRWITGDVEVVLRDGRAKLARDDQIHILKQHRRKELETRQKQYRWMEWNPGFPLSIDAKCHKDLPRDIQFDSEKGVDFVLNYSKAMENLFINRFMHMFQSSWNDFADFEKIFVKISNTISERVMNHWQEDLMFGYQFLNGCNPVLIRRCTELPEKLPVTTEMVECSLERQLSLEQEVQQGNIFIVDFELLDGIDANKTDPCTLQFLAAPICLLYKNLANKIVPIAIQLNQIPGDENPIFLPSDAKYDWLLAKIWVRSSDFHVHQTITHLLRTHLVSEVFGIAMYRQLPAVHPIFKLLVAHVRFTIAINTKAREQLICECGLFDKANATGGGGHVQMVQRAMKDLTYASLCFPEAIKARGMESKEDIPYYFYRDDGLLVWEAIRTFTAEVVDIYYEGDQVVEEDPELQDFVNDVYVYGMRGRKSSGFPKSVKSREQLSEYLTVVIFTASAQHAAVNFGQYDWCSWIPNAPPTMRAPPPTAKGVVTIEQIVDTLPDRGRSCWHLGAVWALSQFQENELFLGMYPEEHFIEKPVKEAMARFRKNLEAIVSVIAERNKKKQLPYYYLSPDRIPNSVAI

[2] = biological target: T2, Polyunsaturated fatty acid 5-lipoxygenase (Homo sapiens, UniProt P09917); test: Inhibition of 5-LO in thapsigargin stimulated human PMNL cells assessed as reduction in 5-LO product level preincubated for 5 mins followed by thapsigargin addition and measured after 15 mins by RP-HPLC analysis; assay type: cell-based
T2 sequence (P09917 whole entry): T1 sequence (whole entry)

Row | Compound | inhibition [1] | IC50 [2]
1 | COc1cc(CCC(=O)CCc2ccccc2)cc(OC)c1O | Active | 420 nM
2 | COc1cc(/C=C/C(=O)OCCc2ccc(C)cc2)cc(OC)c1O | Active | –
3 | COc1cc(CCC(=O)OCCc2ccccc2)cc(OC)c1O | Active | 590 nM
4 | CCCOC(=O)/C=C/c1cc(OC)c(O)c(OC)c1 | Active | 710 nM
5 | COc1cc(C(=O)OCCc2ccccc2)cc(OC)c1O | inactive | –
6 | COc1cc(CC(=O)OCCc2ccccc2)cc(OC)c1O | inactive | 1100 nM
7 | CC(c1cc2ccccc2s1)N(O)C(N)=O (stereo not given) | Active | –
8 | COC(=O)/C=C/c1cc(OC)c(O)c(OC)c1 | inactive | –
9 | COc1cc(/C=C/C(=O)OCCc2ccc(C(F)(F)F)cc2)cc(OC)c1O | Active | –
10 | COc1cc(/C=C/C(=O)OCCc2cccc(F)c2)cc(OC)c1O | Active | 230 nM
11 | COc1cc(/C=C/C(=O)OCCc2ccccc2)cc(OC)c1OC | inactive | –
12 | COc1cc(/C=C/C(=O)OC(C)C)cc(OC)c1O | inactive | –
13 | COc1ccc(CCOC(=O)/C=C/c2cc(OC)c(O)c(OC)c2)cc1 | Active | –
14 | COc1cc(/C=C/C(=O)OCCc2ccccc2C)cc(OC)c1O | Active | 240 nM
15 | COc1cc(/C=C/COCCCc2ccccc2)cc(OC)c1O | Active | 560 nM
16 | COc1ccccc1CCOC(=O)/C=C/c1cc(OC)c(O)c(OC)c1 | Active | 250 nM
17 | COc1cc(/C=C/C(=O)OCCc2ccccc2)cc(OC)c1OC(C)=O | Active | 270 nM
18 | COc1cc(/C=C/C(=O)OCCc2ccc(F)cc2)cc(OC)c1O | Active | –
19 | COc1cccc(/C=C/C(=O)OCCc2ccccc2)c1OC | inactive | –
20 | COc1cc(/C=C/c2nc(CCc3ccccc3)no2)cc(OC)c1O | Active | 270 nM

Continued, values first:

Row | inhibition [1] | IC50 [2] | Compound
21 | Active | 350 nM | COc1cc(/C=C/C(=O)OCCc2ccccc2C(F)(F)F)cc(OC)c1O
22 | Active | 340 nM | COc1cc(/C=C/C(=O)OCCCc2ccccc2)cc(OC)c1O
23 | Active | – | COc1cc(/C=C/C(=O)CCc2ccccc2)cc(OC)c1O
24 | Active | 210 nM | COc1cccc(CCOC(=O)/C=C/c2cc(OC)c(O)c(OC)c2)c1
25 | Active | 200 nM | COc1cc(/C=C/C(=O)OCCc2cccc(C)c2)cc(OC)c1O
26 | inactive | – | COc1cc(/C=C/C(=O)OCCc2ccccc2)cc(OC)c1
27 | Active | – | COc1cc(/C=C/C(=O)OCCC2CCCCC2)cc(OC)c1O
28 | Active | – | C#CCOC(=O)/C=C/c1cc(OC)c(O)c(OC)c1
29 | inactive | – | CCOC(=O)/C=C/c1cc(OC)c(O)c(OC)c1
30 | Active | 240 nM | COc1cc(/C=C/C(=O)OCCc2ccccc2F)cc(OC)c1O
31 | inactive | – | COc1ccc(OC)c(/C=C/C(=O)OCCc2ccccc2)c1
32 | Active | 300 nM | COc1cc(/C=C/c2nc(Cc3ccccc3)no2)cc(OC)c1O
33 | Active | 200 nM | COc1cc(/C=C/C(=O)OCCc2cccc(C(F)(F)F)c2)cc(OC)c1O
34 | Active | – | COc1cc(/C=C/C(=O)OCCc2ccccc2)cc(OC)c1O
35 | inactive | 960 nM | COc1cc(/C=C/C(=O)NCCc2ccccc2)cc(OC)c1O
36 | Active | 1100 nM | COc1cc(/C=C/COCc2ccccc2)cc(OC)c1O
